# From paper PMC5924706 (ACS chemical neuroscience, 2017)
# Like-named read-outs stand apart in the source and are kept apart here.
# Assays:
# [1] = target: GluN1/GluN2D receptors (Rattus norvegicus, UniProt Q62645); conditions: for agonist pEC50 at GluN1/GluN2D: mean (95% CI); for EC50: read-out: agonist EC50 at GluN1/GluN2D
# [2] = tested on: GluN2C-expressing cultured rat cortical neurons; assay: Agonist-evoked NMDAR currents in transfected cultured cortical neurons; conditions: 20 μM compound; NMDA and glycine pressure pulses
# [3] = tested on: cultured rat cortical neurons transfected with GFP alone; assay: as above; conditions: 20 μM compound; NMDA and glycine pressure pulses
# [4] = tested on: GluN2C/2D over GluN2A/2B; conditions: cited from earlier work
# GluN1/GluN2D receptors, sequence (Q62645 28-1323, other chains not shown): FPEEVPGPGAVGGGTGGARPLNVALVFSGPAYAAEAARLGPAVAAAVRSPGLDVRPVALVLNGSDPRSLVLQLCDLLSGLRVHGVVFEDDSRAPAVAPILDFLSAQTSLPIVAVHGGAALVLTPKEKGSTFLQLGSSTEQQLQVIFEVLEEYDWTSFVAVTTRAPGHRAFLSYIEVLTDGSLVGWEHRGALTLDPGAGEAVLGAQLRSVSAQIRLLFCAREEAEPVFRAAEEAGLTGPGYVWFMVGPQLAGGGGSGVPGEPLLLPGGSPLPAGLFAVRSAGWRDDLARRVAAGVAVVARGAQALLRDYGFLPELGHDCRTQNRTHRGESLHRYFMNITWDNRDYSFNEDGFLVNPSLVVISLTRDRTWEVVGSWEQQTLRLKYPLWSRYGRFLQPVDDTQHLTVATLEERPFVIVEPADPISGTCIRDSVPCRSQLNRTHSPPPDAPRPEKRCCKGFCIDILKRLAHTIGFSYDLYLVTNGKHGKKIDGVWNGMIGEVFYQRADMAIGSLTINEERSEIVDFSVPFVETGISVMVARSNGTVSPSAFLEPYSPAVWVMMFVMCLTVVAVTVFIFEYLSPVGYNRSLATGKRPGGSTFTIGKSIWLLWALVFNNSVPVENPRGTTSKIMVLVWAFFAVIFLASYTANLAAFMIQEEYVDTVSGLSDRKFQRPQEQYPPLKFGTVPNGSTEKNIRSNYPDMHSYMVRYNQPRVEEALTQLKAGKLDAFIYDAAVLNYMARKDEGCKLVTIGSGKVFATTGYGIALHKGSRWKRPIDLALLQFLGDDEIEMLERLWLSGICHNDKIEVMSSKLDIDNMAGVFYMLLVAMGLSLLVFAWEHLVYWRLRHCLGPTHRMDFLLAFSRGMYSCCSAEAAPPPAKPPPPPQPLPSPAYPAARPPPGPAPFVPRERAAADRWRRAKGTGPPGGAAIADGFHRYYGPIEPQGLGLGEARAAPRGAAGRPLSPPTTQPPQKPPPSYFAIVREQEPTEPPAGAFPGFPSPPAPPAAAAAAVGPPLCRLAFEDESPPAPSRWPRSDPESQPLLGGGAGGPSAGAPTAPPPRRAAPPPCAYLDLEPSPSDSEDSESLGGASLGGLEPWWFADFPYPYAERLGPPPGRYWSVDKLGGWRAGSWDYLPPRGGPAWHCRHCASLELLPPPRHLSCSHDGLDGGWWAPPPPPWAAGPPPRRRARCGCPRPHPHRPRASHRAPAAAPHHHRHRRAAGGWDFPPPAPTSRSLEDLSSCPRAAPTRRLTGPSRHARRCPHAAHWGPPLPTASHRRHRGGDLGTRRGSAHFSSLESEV
compound,measurement,setting,value
N[C@@H](CCC(=O)O)C(=O)O [glutamate],agonist pEC50 at GluN1/GluN2D,[1]; absence of NAB-14,"−6.22 (−6.29, −6.14)"
same,agonist pEC50 at GluN1/GluN2D,[1]; presence of 3 μM NAB-14,"−6.15 (−6.36, −5.93)"
same,EC50,[1]; absence of NAB-14,610 nM
same,EC50,[1]; presence of 3 μM NAB-14,710 nM
COc1ccc(OCC2c3cc(OC)c(OC)cc3CCN2C(=O)c2cccc(Cl)c2)cc1 (centres unmarked) [CIQ],"agonist-evoked response, % of control, GluN2C-expressing neurons",[2],145 ± 5.9%
same,"agonist-evoked response, % of control, neurons transfected with GFP alone",[3],98 ± 1.8%
Cc1ccc2[nH]c(=O)c(C3=NN(C(=O)CCC(=O)O)C(c4ccc(Br)cc4)C3)c(-c3ccccc3)c2c1 (centres unmarked) [DQP-1105],selectivity for GluN2C/2D over GluN2A/2B,[4],up to 50 fold
COc1ccc2nc(/C=C/c3cccc([N+](=O)[O-])c3)n(-c3ccc(C(=O)O)cc3)c(=O)c2c1 [QNZ46],selectivity for GluN2C/2D over GluN2A/2B,[4],up to 50 fold
